Results taken from ChEMBL document CHEMBL3112523, “Synthesis and biological evaluation of benzo[4,5]imidazo[1,2-c]pyrimidine and benzo[4,5]imidazo[1,2-a]pyrazine derivatives as anaplastic lymphoma kinase inhibitors” (Bioorg Med Chem, 2014).

How the values were obtained:
[1] = target: ALK tyrosine kinase receptor (Homo sapiens, UniProt Q9UM73)
[2] = tested on: BaF3; assay: cells; conditions: Mus musculus
Description: Cytotoxicity against mouse BAF3 cells assessed as growth inhibition after 72 hrs by [3H]-thymidine incorporation assay

[3] = target: ALK tyrosine kinase receptor (Homo sapiens, UniProt Q9UM73, L1196M)

**Q.** For COc1ccc(-c2cncc3nc4ccc(-c5ccc(NC(C)=O)cc5)cc4n23)cc1, which IC50 [1] is on record?
**A.** 18 µM

**Q.** CN1CCN(c2ccc(-c3ccc4nc5cncc(-c6ccc(N7CCN(C)CC7)cc6)n5c4c3)cc2)CC1 was tested. Which IC50 [2] did it give?
**A.** 0.87 µM

**Q.** And the IC50 [3]?
**A.** 29 µM

**Q.** What about the IC50 [1] of the same molecule?
**A.** > 100 µM

**Q.** How did the IC50 [1] turn out when COc1ccc(-c2cncc3nc4ccc(-c5ccc(N6CCN(C)CC6)cc5)cc4n23)cc1 was run?
**A.** 14 µM

**Q.** What does the source list for Clc1cncc2nc3ccc(Br)cc3n12?
**A.** IC50 [2]: 2.4 µM; IC50 [1]: > 50 µM

**Q.** For COc1ccc(-c2ccc3nc4cncc(/C=C/c5ccccc5)n4c3c2)cc1, which IC50 [2] is on record?
**A.** > 12.5 µM

**Q.** And the IC50 [3]?
**A.** 1.5 µM

**Q.** And the IC50 [1]?
**A.** 0.65 µM

**Q.** With COc1cccc(Nc2cc3nc4ccccc4n3cn2)c1 as the molecule, how does the IC50 [1] read?
**A.** 51 µM

**Q.** With Clc1cncc2nc3ccccc3n12 as the molecule, how does the IC50 [1] read?
**A.** > 100 µM

**Q.** Clc1cc2nc3ccc(Br)cc3n2cn1 was tested. Which IC50 [1] did it give?
**A.** > 50 µM

**Q.** With COc1ccc(-c2cc3nc4ccc(Br)cc4n3cn2)cc1 as the molecule, how does the IC50 [2] read?
**A.** > 25 µM

**Q.** What about the IC50 [1] of the same molecule?
**A.** 10 µM

**Q.** What does the source list for Brc1ccc2nc3cc(Nc4ccccc4)ncn3c2c1?
**A.** IC50 [2]: 5.2 µM; IC50 [3]: 49 µM; IC50 [1]: 69 µM

**Q.** Which results are given for O=[N+]([O-])c1cccc(Nc2cc3nc4ccccc4n3cn2)c1?
**A.** IC50 [3]: 14 µM; IC50 [1]: 10 µM

**Q.** Which IC50 [3] does the source give for COc1ccc(-c2cncc3nc4ccc(/C=C/c5ccccc5)cc4n23)cc1 here?
**A.** 4.5 µM

**Q.** And the IC50 [1]?
**A.** 3.5 µM

**Q.** With Clc1cc2nc3ccccc3n2cn1 as the molecule, how does the IC50 [1] read?
**A.** > 100 µM

**Q.** Which IC50 [3] does the source give for c1ccc(Nc2cc3nc4ccccc4n3cn2)cc1 here?
**A.** 10 µM

**Q.** What about the IC50 [1] of the same molecule?
**A.** 52 µM
